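Assay format: 96-well plates, 48-hour exposure. GI50 marks 50% less growth.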 Calls of active or inactive are those of the source. Rule as the data show it: active = GI50 up to about 1.1 µM and inactive = higher.
Key:
Assay in all cases: NCI anticancer screen, dose series, 48 h
DU-145 = test system: DU-145
OVCAR-5 = test system: OVCAR-5
NCI-H522 = test system: NCI-H522
HL-60 = test system: HL-60
MCF7 = test system: MCF7
M14 = test system: M14
UACC-257 = test system: UACC-257
SK-OV-3 = test system: SK-OV-3
RPMI-8226 = test system: RPMI-8226
PC-3 = test system: PC-3
HCT-15 = test system: HCT-15
HOP-92 = test system: HOP-92
K562 = test system: K562
HCT-116 = test system: HCT-116
SNB-19 = test system: SNB-19
786-0 = test system: 786-0
MDA-N = test system: MDA-N
OVCAR-8 = test system: OVCAR-8
SF-295 = test system: SF-295

Structure (SMILES)	GI50 (DU-145)	GI50 (OVCAR-5)	GI50 (NCI-H522)	GI50 (HL-60)	GI50 (MCF7)	GI50 (M14)	GI50 (UACC-257)	GI50 (SK-OV-3)	GI50 (RPMI-8226)	GI50 (PC-3)	GI50 (HCT-15) [µM]	GI50 (HOP-92)	GI50 (K562)	GI50 (HCT-116)	GI50 (SNB-19)	GI50 (786-0)	GI50 (MDA-N)	GI50 (OVCAR-8)	GI50 (SF-295)
CC(=O)/C=c1\[nH]/c(=C\C=C\c2ccccc2)c(=O)n1/C=C1\C(=O)Oc2ccccc2C1=O	> 100 µM (inactive)	> 100 µM (inactive)	> 100 µM (inactive)	> 100 µM (inactive)	> 100 µM (inactive)	> 100 µM (inactive)	> 100 µM (inactive)	> 100 µM (inactive)	> 100 µM (inactive)	> 100 µM (inactive)	> 100	> 100 µM (inactive)	> 100 µM (inactive)	> 100 µM (inactive)	> 100 µM (inactive)	> 100 µM (inactive)	> 100 µM (inactive)	> 100 µM (inactive)	
CC(C)(C)OC(=O)/C=C/C(=O)O/C=C/[N+](=O)[O-]	> 100 µM (inactive)	> 100 µM (inactive)	> 100 µM (inactive)		> 100 µM (inactive)	> 100 µM (inactive)	> 100 µM (inactive)	> 100 µM (inactive)	> 100 µM (inactive)		> 100	> 100 µM (inactive)	14.4 µM (inactive)	> 100 µM (inactive)		> 100 µM (inactive)	> 100 µM (inactive)	> 100 µM (inactive)	> 100 µM (inactive)
Cn1c([C@H](C#N)c2ncccc2[N+](=O)[O-])nc2ccccc21		> 100 µM (inactive)	14.4 µM (inactive)	> 100 µM (inactive)	21 µM (inactive)	> 100 µM (inactive)	> 100 µM (inactive)	32.8 µM (inactive)	> 100 µM (inactive)	86.1 µM (inactive)	> 100	89.1 µM (inactive)	> 100 µM (inactive)	> 100 µM (inactive)	50 µM (inactive)	31.8 µM (inactive)	> 100 µM (inactive)	49.3 µM (inactive)	28.4 µM (inactive)
CCOC(=O)C1C(=O)c2ccccc2CN1Cc1ccccc1 (configuration not stated)		> 100 µM (inactive)	> 100 µM (inactive)	> 100 µM (inactive)		> 100 µM (inactive)	> 100 µM (inactive)	> 100 µM (inactive)	> 100 µM (inactive)		> 100	> 100 µM (inactive)	> 100 µM (inactive)	> 100 µM (inactive)	> 100 µM (inactive)	> 100 µM (inactive)		> 100 µM (inactive)	> 100 µM (inactive)
COc1ccc(NC(=O)CC(=O)NN2C(=O)/C(=C/c3ccc(N(CCC#N)CCC#N)cc3C)N=C2/C=C\c2ccccc2)cc1		> 100 µM (inactive)	> 100 µM (inactive)	> 100 µM (inactive)		> 100 µM (inactive)	> 100 µM (inactive)	> 100 µM (inactive)	> 100 µM (inactive)		> 100	> 100 µM (inactive)	> 100 µM (inactive)	> 100 µM (inactive)	> 100 µM (inactive)	> 100 µM (inactive)		> 100 µM (inactive)	> 100 µM (inactive)
CCSc1nc2sc(C)c(C)c2c(=O)n1-c1ccc(C(=O)O)cc1		> 100 µM (inactive)	23.2 µM (inactive)	35.3 µM (inactive)		> 100 µM (inactive)	98.4 µM (inactive)	> 100 µM (inactive)	34.1 µM (inactive)		39.9	> 100 µM (inactive)	55.5 µM (inactive)	22.7 µM (inactive)	31.1 µM (inactive)	> 100 µM (inactive)		72.4 µM (inactive)	40.9 µM (inactive)
COc1cc(C2=NN(C)C(c3ccc([N+](=O)[O-])o3)C2)cc(OC)c1OC (configuration not stated)		> 100 µM (inactive)	43.7 µM (inactive)	18.2 µM (inactive)		53.8 µM (inactive)	> 100 µM (inactive)	> 100 µM (inactive)	1.78 µM (inactive)		18.2	45.5 µM (inactive)	52 µM (inactive)	48.8 µM (inactive)	> 100 µM (inactive)	23.1 µM (inactive)		> 100 µM (inactive)	> 100 µM (inactive)
COc1ccc(OC)c(-c2cc(O)c3cc4c(cc3n2)OCO4)c1		8.53 µM (inactive)	2.85 µM (inactive)	2.96 µM (inactive)		3.94 µM (inactive)	7.69 µM (inactive)	3.49 µM (inactive)	4.18 µM (inactive)		4.22	3.54 µM (inactive)	4.11 µM (inactive)	4.14 µM (inactive)	18.5 µM (inactive)	6.47 µM (inactive)		9.59 µM (inactive)	4.15 µM (inactive)
CS(=O)(=O)OCCn1cnc2nc(NC(=O)c3ccccc3)[nH]c(=O)c21		> 100 µM (inactive)	> 100 µM (inactive)	> 100 µM (inactive)		> 100 µM (inactive)	> 100 µM (inactive)	> 100 µM (inactive)	> 100 µM (inactive)		> 100	> 100 µM (inactive)	> 100 µM (inactive)	> 100 µM (inactive)	> 100 µM (inactive)	> 100 µM (inactive)		> 100 µM (inactive)	> 100 µM (inactive)
COc1c(OC(C)=O)cc2c(OC(C)=O)c1CC(C)CC(OC)C(O)C(C)/C=C(\C)C(OC(N)=O)C(OC)/C=C\C=C(/C)C(=O)N2 (configuration not stated)		> 100 µM (inactive)	10.7 µM (inactive)	> 41.5 µM (inactive)		> 100 µM (inactive)	> 100 µM (inactive)	> 100 µM (inactive)	> 54.5 µM (inactive)		> 64.7	96.8 µM (inactive)	> 26.3 µM (inactive)	> 55.5 µM (inactive)	> 100 µM (inactive)	> 81.3 µM (inactive)		> 65 µM (inactive)	> 100 µM (inactive)
CCOCc1cc(=O)c2cc3c(cc2o1)OC(C)(C)CC3		> 100 µM (inactive)	> 100 µM (inactive)	61.2 µM (inactive)		> 100 µM (inactive)	65.3 µM (inactive)	> 100 µM (inactive)	91.4 µM (inactive)		> 100	45.7 µM (inactive)	97.5 µM (inactive)	> 100 µM (inactive)	> 100 µM (inactive)	> 100 µM (inactive)		> 100 µM (inactive)	93.8 µM (inactive)
CCOC(=O)/C(C#N)=C/c1[nH]c(C)c(C)c1C		> 100 µM (inactive)	> 100 µM (inactive)	> 100 µM (inactive)		> 100 µM (inactive)	> 100 µM (inactive)	> 100 µM (inactive)	> 100 µM (inactive)		> 100	> 100 µM (inactive)	> 100 µM (inactive)	> 100 µM (inactive)	> 100 µM (inactive)	> 100 µM (inactive)		> 100 µM (inactive)	> 100 µM (inactive)
Cc1cc(C)nc(NC(P(=O)(O)O)P(=O)(O)O)n1	> 100 µM (inactive)	> 100 µM (inactive)	> 100 µM (inactive)		> 100 µM (inactive)	> 100 µM (inactive)	> 100 µM (inactive)	> 100 µM (inactive)		> 100 µM (inactive)	> 100			> 100 µM (inactive)	> 100 µM (inactive)	> 100 µM (inactive)	> 100 µM (inactive)	> 100 µM (inactive)	> 100 µM (inactive)

From ChEMBL document CHEMBL1201862, “PubChem BioAssay data set” (2004)
